For series [1] the following is noted: 10 mg kg−1 IV, 1 h and 24 h; heart, lung, liver, spleen, kidney, tumor.
Procedure: With four mice inoculated with 4T1 (1,000,000 cells), after 20 days, AuPhos-89 was inserted into mice by IV administration (0.1 mL, 10 mg/kg). Each tissue was obtained by sacrificing the mice (n=2) 1 and 24 hours later. […] The solution turned yellow and diluted as needed to measure the gold content using a Graphite Furnace Atomic Absorption Spectrometer. Before measuring all samples, the standard solution curves were measured.
After respective time points of 1 h and 24 h, mice were euthanized. Organs including heart, lung, liver, spleen, kidney, and tumor were excised and the gold concentration was analyzed by GF-AAS.
The test system of series [2] is 4T1 cells engineered to express RFP. The note with it: 10 mg kg−1 day−1, six treatments, thrice a week, compared with controls. The text has this: Murine TNBC 4T1 cells engineered to express RFP were also subcutaneously injected into flanks of immunocompromised mice in the presence of Matrigel.
Series [3] concerns MDA-MB-231 cells. The note with it: live MDA-MB-231 cells, mito-stress test. As for the experimental part:
(§1) Analysis. The initial step of Seahorse XF96 analysis included optimization of the cell density. In this stage, isolated mitochondria (30 μg) or MDA-MB-231 cells were seeded at a range of densities from 2000 cells/well to 100,000 cells/well, followed by optimization of the FCCP injection concentration used (0.6 μM of 1.2 μM). […] All Seahorse XF96 experiments with MDA-MB-231 were performed under these conditions. The cells were seeded the night prior to the experiment with a final volume of 100 μL and incubated overnight at 37° C. AuPhos-89 was prepared as a stock in DMSO/DMEM (% v/v=20:80) and diluted to a working concentration of 100 μM with Seahorse XF96 assay buffer and then subsequently serial diluted by 10× to achieve multiple concentrations. The assay was performed using a pneumatic injection method of AuPhos-89, with the final injection concentrations of 0.01, 0.1, 1, and 10 μM. This was followed by injection of oligomycin (1.5 μM), FCCP (0.6 μM) and rotenone/antimycin A (0.5 μM).

The test system of series [4] is isolated mitochondria from the liver of C57BL/6J mice. The note with it: 1 μM, in the presence of oligomycin; dose-dependent up to about 10 μM. As for the experimental part: as §1
The conditions of series [5]: 37° C. The method, then: To determine the stability of gold compounds under physiological conditions in the presence of biological nucleophiles, UV absorbance measurements were conducted over a 24 h time period. Briefly, AuPhos was dissolved in media from a DMSO stock. To this solution was added 10 mM L-glutathione.
To study the stability of the gold(III) compounds in solution, the UV-vis profile of the representative compounds was evaluated in biologically relevant media at physiological temperature of 37° C. Given the common limitation of gold compounds to promiscuously bind thiol containing biomolecules, the interaction of gold(III) complex AuPhos89 was investigated with physiologically relevant concentration of L-glutathione (10 mM) in Dubelcco modified essential medium (DMEM).

Series [6] concerns MDA-MB-231 cells. The note with it: 1 μM; 24 h, 48 h, 72 h.
Procedure: MDA-MB-231 cells were seeded at a density of 5×10^5 cells/well in a 6-well clear bottom plate with a final media volume of 2 mL and allowed to adhere overnight 37° C. […] After the desired treatment period, the medium was removed and added to a 15 mL Falcon tube. The wells were washed with 5 mL of PBS and added to the Falcon tube. The cells were trypsinized (1 mL) and added 5 mL of fresh DMEM. All media were combined, and the tube centrifuged at 2000 rpm for 5 minutes to collect the pellet. The medium was decanted, and the pellet suspended in 1 mL of PBS, which was then transferred to a 1 mL Eppendorf tube, centrifuged at 2000 rpm for 5 minutes and suspended in 70% EtOH/PBS solution. These solutions were stored at 4° C. until ready for analysis. […] The cells were washed twice with PBS (1 mL) and suspended in a 50 μL of RNase solution (100 μg/mL) and 200 μL of a 50 μg/mL PI solution. The solutions were then filtered through a 5 mL polystyrene round-bottom tube fit with a cell-strainer cap. The samples were then analyzed with FACS.
In series [7] the test system is MDA-MB-231 cells. As to conditions: TMRE or JC-1 assay, short exposure periods.
Procedure: MDA-MB-231 cells were plated at a density of 5×10^5 cells/plate in a 6 well plate and allowed to adhere overnight at 37° C. […] The cells were incubated (37° C., 5% CO2) for 1 h at this concentration. Carbonyl cyanide 3-chlorophenylhydrazone (CCCP) was prepared as a stock in DMSO and added at a final concentration of 100 μM, and the cells were treated for 1 h. It was used as a positive control. After the indicated treatment time, a working solution of the JC-1 dye (Cayman Chemicals, Cat. #15003) was prepared by adding 100 μL of dye into 900 μL of DMEM. Note: the working solution of JC-1 should always be prepared fresh and not stored for long-term use. Then, 100 μL/mL of working solution of the JC-1 dye was added to the cells and incubated at 37° C. for 20 minutes. The cells were harvested and resuspended in 2 mL PBS. The cells were analyzed on a flow cytometer with 488 nm excitation and appropriate emission filters. Gated cells, excluded debris and the CCCP-treated sample was used to performed standard compensation.
Series [8] deals with MDA-MB-231 cells. The experiment in a line: Western blotting of apoptotic markers and AMPK. As to conditions: 1 μM, indicated times. In general terms: Immunoblotting shows a protein as a band on a membrane.
Procedure: Furthermore, to determine if AuPhos-89 induces apoptosis through the caspase-mediated apoptotic pathway, western blotting was performed to assess the induction of caspases and cleaved PARP (FIG. 7C). […] Global changes in proteins were investigated using quantitative proteomics after 12 h of exposing MDA-MB-231 cells to AuPhos-89 at 1 μM. In this tandem mass tag (TMT)-based quantification, protein was extracted from cryo-preserved cell pellets and following tryptic digestion, TMT-labeling was performed. After fractionation, tandem LC-MS/MS was conducted and database search against HUMAN protein database was carried out. Proteins of relative quantification were divided into two categories. A quantitative ratio over 1.5 was considered upregulation while a quantitative ratio less than 1/1.5 was considered as downregulation.
The test system of series [9] is MDA-MB-231 (breast). The experiment in a line: Cell viability, crystal violet assay, MDA-MB-231. Type of series: cell-based, human. The text has this: The plates were washed with water and dried again.
For series [10] the following is noted: 10 mM in DMSO-d6, 24 h. As for the experimental part: Stock solutions comprised of a 1 mL, 20 mM solution of AuPhos-89 in DMSO-d6. The solution of L-GSH (20 mM) was sonicated for 5 minutes to dissolve the reagent in DMSO-d6. 1 mL of each solution were mixed in a 1:1 ratio to produce a final concentration of 10 mM in DMSO-d6. The solution was then analyzed by 1H NMR spectroscopy. The solution was further analyzed at different time intervals, t=1 h, 6 h, 12 h, and 24 h.

The conditions of series [11]: equimolar glutathione, aqueous solution, 24 h.
Procedure: All spectra were recorded using an Agilent Technologies 1100 series HPLC instrument and an Agilent Phase Eclipse Plus C18 column (4.6 mm×100 mm; 3.5 μm particle size). AuPhos-89 and glutathione were prepared as 1 mM stock in DMSO and water, respectively. Equimolar amounts were mixed and the solutions were measured at 0, 1, 3, and 24 h by HPLC. The parameters used in the HPLC were as follows: flow rate, 1 mL/min; λ=280 nm; eluent A=H2O with 0.1% TFA; Eluent B═CH3CN with 0.05% HCOOH; Solvent gradient: 0 min (100:0 H2O:CH3CN), 10 min (0:100 H2O:CH3CN), 15 min (100:0 H2O:CH3CN).
The subject of series [12] is OVCAR8 (ovarian). As to conditions: OVCAR8 (ovarian), 4,000 cells/well, treated 72 h, mean ± SD (n = 3). As for the experimental part: (§2) All cell lines (OVCAR8, A2780, H460, and MDA-MB-231) were cultivated in RPMI or DMEM supplemented with 10% FBS, 1% penicillin/streptomycin, and 1% amphotericin. All cells were grown at 310K in a humidified atmosphere containing 5% CO2.
(§3) Various established human ovarian, lung, and breast cancer cell lines were seeded in 96-well plates (4000 cells/well) and were incubated with RPMI 1640 or DMEM (100 μL) supplemented with 10% FBS, 1% penicillin/streptomycin, and 1% amphotericin for 24 h and at 37° C. They were then treated with AuPhos compounds at increasing concentrations for 72 h from stock solutions following serial dilutions, in which AuPhos stock solutions were prepared in DMSO/media mixture (% v/v=20:80). Thereafter, cellular viability was assessed via the established crystal violet colorimetric assay. In brief, cells were fixed with 50 μL of a 1% glutaraldehyde solution and placed in an incubator (37° C., 5% CO2) for 1 hour. The plates were washed with water by running them under a gentle flow of tap water. The plates were air-dried, and crystal violet reagent was added to each well and allowed to incubate at room temperature for 20 min. The plates were washed with water and dried again. Methanol (200 μL/well) was added to each well, and the measurements of absorbance were subsequently performed using a Biotek Synergy H1 Plate Reader at 570 nm (peak absorbance).

The subject of series [13] is H460 (lung). The note with it: H460 (lung), 4,000 cells/well, treated 72 h, mean ± SD (n = 3). As for the experimental part:
as §2, §3

Series [14] has as its system A2780 (ovarian). The note with it: A2780 (ovarian), 4,000 cells/well, treated 72 h, mean ± SD (n = 3). As for the experimental part:
as §2, §3

SMILES strings stand for the structures.

This note sets out measurements from US20230357292A1, “MULTI-COORDINATE GOLD-PHOSPHINE COMPOUNDS AND METHOD OF USE” (University of Kentucky Research Foundation, priority 2020, published 2023).

With `[Cl-].[Cl][Au-]1([c]2ccccc2-c2ccccn2)[P+](c2ccccc2)(c2ccccc2)c2ccccc2[P+]1(c1ccccc1)c1ccccc1` [AuPhos-89, (2-phenylpyridine)[1,2-Bis(diphenylphosphino)benzene]gold(III) Dichloride], in series [1], the “tissue biodistribution, Au levels in organs” value was “confirmed the uptake”. Besides, in series [2], the tumor growth entry is recorded as “significant attenuation of growth”. For the same compound, in [3], the ATP production result was “diminished ATP production”. Further, the proton leak result in [3] is given as “acutely induced proton leak”. In series [4], the “mitochondrial oxygen consumption rate (OCR)” value was “increased oxygen consumption”. Besides, the “stability, UV-vis absorption with L-glutathione” value in [5] (10 mM L-glutathione in media (DMEM), 24 h) was “no alteration to the absorption band”. In series [5] (RPMI-1640, 24 h), the “stability, UV-vis absorption in RPMI-1640” value was “no changes to the absorption spectra”. Further, the cell cycle distribution result in [6] is recorded as “no significant changes to the cell cycle”. In [7], the “mitochondrial membrane potential (MMP)” value was “depolarization of the MMP”. Also, the “induction of caspases, cleaved PARP and AMPK” value in series [8] was “activate cleaved caspases, PARP and the cellular energy regulator, AMPK”. Moreover, the IC50 (usually the point on the concentration scale where inhibition reaches its midpoint) in [9] (MDA-MB-231 (breast), 4,000 cells/well, treated 72 h, mean ± SD (n = 3)) came out at 450 ± 140 nM; in series [9] (cell line not stated at the place (structure-activity relationship studies)), 220 nM; in [12] it was 1160 ± 40 nM; in [13], 720 ± 160 nM; in [14], 340 ± 70 nM. For the same compound, the “stability with L-GSH, proton resonances” value in series [10] is listed as “minimally altered”. Moreover, the “stability with L-GSH, HPLC chromatogram” value in [11] is recorded as “little change”.
